Source: patent US20050203086A1, “Methods of treatment using an EP2 selective receptor agonist” (Pfizer Inc., priority 2004, published 2005)

Each molecule was assayed against T1, prostaglandin E2 type 2 (EP2) receptors (Homo sapiens, UniProt P43116) (assay: Assay for Binding to Prostaglandin E2 Receptors (3H-prostaglandin E2 displacement, membranes of transfected 293S cells)). Conditions: concentration displacing 50% of specifically bound 3H-prostaglandin E2, 1 hour at 25° C.
T1 construct: These full length receptors are used to prepare 293S cells expressing the EP1, EP2, EP3 and EP4 receptors; expressed in transfected cells; membranes
T1 sequence (P43116 whole entry): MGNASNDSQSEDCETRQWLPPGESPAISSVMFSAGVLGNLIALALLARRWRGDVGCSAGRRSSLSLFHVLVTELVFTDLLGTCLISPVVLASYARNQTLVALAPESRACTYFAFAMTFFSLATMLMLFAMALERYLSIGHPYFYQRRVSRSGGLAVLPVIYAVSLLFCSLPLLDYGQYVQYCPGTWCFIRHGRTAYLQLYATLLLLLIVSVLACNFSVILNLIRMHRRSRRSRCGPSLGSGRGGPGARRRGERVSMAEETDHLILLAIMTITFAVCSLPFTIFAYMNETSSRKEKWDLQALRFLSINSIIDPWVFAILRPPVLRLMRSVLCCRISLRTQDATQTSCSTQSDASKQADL
Method: Membrane Preparation: All operations are performed at […]. Transfected cells expressing prostaglandin E2 type 1 receptors (EP1), type 2 (EP2), type 3 (EP3) or type 4 (EP4) receptors are harvested and suspended to 2 million cells per ml in Buffer A [50 mM Tris-HCl (pH 7.4), 10 mM MgCl2, 1 mM EDTA, 1 mM Pefabloc peptide, (Boehringer Mannheim Corp., Indianapolis, Ind.), 10 uM Phosporamidon peptide, (Sigma, St. Louis, Mo.), 1 uM pepstatin A peptide, (Sigma, St. Louis, Mo.), 10 uM elastatinal peptide, (Sigma, St. Louis, Mo.), 100 uM antipain peptide, (Sigma, St. Louis, Mo.)]. The cells are lysed by sonification with a Branson Sonifier (Model #250, Branson Ultrasonics Corporation, Danbury, Conn.) in 2 fifteen second bursts. Unlysed cells and debris are removed by centrifugation, at 100×g for 10 min. Membranes are then harvested by centrifugation at 45,000×g for 30 minutes. […] Resuspended membranes are then stored frozen at −80° C. until use.
Binding Assay: Frozen membranes prepared as above are thawed and diluted to 1 mg protein per ml in Buffer A above. […] The membranes with bound ^3H-prostaglandin E2 are trapped by the filter, while the buffer and unbound ^3H-prostaglandin E2 pass through the filter into waste. Each sample is then washed 3 times with 3 ml of [50 mM Tris-HCl (pH 7.4), 10 mM MgCl2, 1 mM EDTA]. The filters are then dried by heating in a microwave oven.
Typically, PCR (polymerase chain reaction) primers corresponding to the 5′ and 3′ ends of the published full length receptor are made according to the well known methods disclosed above and are used in an RT-PCR reaction using the total RNA from human kidney (for EP1), human lung (for EP2), human lung (for EP3) or human lymphocytes (for EP4) as a source. PCR products are cloned by the TA overhang method into pCR2.1 (Invitrogen, Carlsbad, Calif.) and identity of the cloned receptor is confirmed by DNA sequencing.
Stable cell lines expressing the receptor are established following selection of transfected cells with G418.
Work on `O=C(O)Cc1cccc(CN(Cc2ccc(-c3nccs3)cc2)S(=O)(=O)c2cccnc2)c1` [Example 1u, (3-(((Pyridine-3-sulfonyl)-(4-thiazol-2-yl-benzyl)-amino)-methyl)-phenyl)-acetic acid] yielded an IC50 of 7 nM. Work on `O=C(O)c1ccc(CCCN(CCCc2cccc(Cl)c2)C(=O)Cc2ccccn2)s1` [Example 5a, 5-(3-((3-(3-Chloro-phenyl)-propyl)-(pyridin-2-yl-acetyl)-amino)-propyl)-thiophene-2-carboxylic acid] yielded an IC50 of 355 nM. With `O=C(O)c1ccc(CCCN(CCCc2cccc(Cl)c2)S(=O)(=O)CCCCNC(=O)c2ccccc2C(=O)O)s1` [Example 6c, 5-(3-((4-(2-Carboxy-benzoylamino)-butane-1-sulfonyl)-(3-(3-chloro-phenyl)-propyl)-amino)-propyl)-thiophene-2-carboxylic acid] the IC50 was 300 nM. `COC(=O)c1ccccc1S(=O)(=O)N(CCCc1cccc(Cl)c1)CCCc1ccc(C(=O)O)s1` [Example 6e, 5-(3-((3-(3-Chloro-Phenyl)-propyl)-(2-methoxycarbonyl-benzenesulfonyl)-amino)-propyl)-thiophene-2-carboxylic acid] was tested, and the IC50 was 325 nM. Molecule `O=C(O)Cc1cccc(CN(Cc2ccc(-n3ccnc3)cc2)S(=O)(=O)c2cccnc2)c1` [Example 1s, (3-(((4-Imidazol-1-yl-benzyl)-(pyridine-3-sulfonyl)-amino)-methyl)-phenyl)-acetic acid] has an IC50 of 165 nM. Molecule `O=C(O)Cc1cccc(CN(Cc2cc(Cl)cs2)S(=O)(=O)c2cccnc2)c1` [Example 1j] has an IC50 of 385 nM. With `O=C(O)Cc1cccc(CN(Cc2ccc(Oc3ccccc3)cc2)S(=O)(=O)c2cccnc2)c1` [Example 1af, (3-(((4-Phenoxy-benzyl)-(pyridine-3-sulfonyl)-amino)-methyl)-phenyl)-acetic acid] the IC50 was 106 nM. `CCCCc1ccc(CN(Cc2cccc(CC(=O)O)c2)S(=O)(=O)c2ccccc2)cc1` [Example 9a, (3-((Benzenesulfonyl-(4-butyl-benzyl)-amino)-methyl)-phenyl)-acetic acid] showed an IC50 of 84.5 nM. `Cc1ccc(C)c(S(=O)(=O)N(CCCc2cccc(Cl)c2)CCCc2ccc(C(=O)O)s2)c1` [Example 6a, 5-(3-((3-(3-Chloro-phenyl)-propyl)-(2,5-dimethyl-benzenesulfonyl)-amino)-propyl)-thiophene-2 carboxylic acid] showed an IC50 of 325 nM. `O=C(O)c1ccc(CCCN(CCCc2cccc(Cl)c2)C(=O)Nc2ccc(Cl)c(Cl)c2)s1` [Example 7c, 5-(3-(1-(3-(3-Chloro-phenyl)-propyl)-3-(3,4-dichloro-phenyl)-ureido)-propyl)-thiophene-2-carboxylic acid] gave an IC50 of 260 nM. In the case of `O=C(O)Cc1cccc(CN(Cc2ccc(C3CCCCC3)cc2)S(=O)(=O)c2cccnc2)c1` [Example 1ad, (3-(((4-Cyclohexyl-benzyl)-(pyridine-3-sulfonyl)-amino)-methyl)-phenyl)-acetic acid], the IC50 is reported as 195 nM. In the case of `CCC(C)(C)c1ccc(S(=O)(=O)N(CCCc2cccc(Cl)c2)CCCc2ccc(C(=O)O)s2)cc1` [Example 6g, 5-(3-((3-(3-Chloro-phenyl)-propyl)-(4-(1,1-dimethyl-propyl)-benzenesulfonyl)-amino)-Propyl)-thiophene-2-carboxylic acid], the IC50 is reported as 350 nM. With `CCCCc1ccc(CN(Cc2cccc(CC(=O)O)c2)S(=O)(=O)c2ccc([N+](=O)[O-])cc2)cc1` [Example 1k, (3-(((4-Butyl-benzyl)-(4-nitro-benzenesulfonyl)-amino)-methyl)-phenyl)-acetic acid] the IC50 was 1760 nM. In the case of `O=C(O)Cc1cccc(CN(CCOc2cc(Cl)cc(Cl)c2)S(=O)(=O)c2cccnc2)c1` [Example 2b, (3-(((2-(3.5-Dichloro-phenoxy)-ethyl)-(pyridine-3-sulfonyl)-amino)-methyl)-phenyl)-acetic acid], the IC50 is reported as 385 nM. With `COc1ccc(S(=O)(=O)N(CCCc2cccc(Cl)c2)CCCc2ccc(C(=O)O)s2)cc1` [Example 4a, 5-(3-((3-(3-Chloro-phenyl)-propyl)-(4-methoxy-benzenesulfonyl)-amino)-propyl)-thiophene-2-carboxylic acid] the IC50 was 795 nM. `O=C(O)c1ccc(CCCN(Cc2ccc(-c3nccs3)cc2)S(=O)(=O)c2cccnc2)s1` [Example 1an, 5-(3-((Pyridine-3-sulfonyl)-(4-thiazol-2-yl-benzyl)-amino)-propyl)-thiophene-2-carboxylic acid] was tested, and the IC50 was 94 nM. Work on `O=C(O)COc1cccc(CN(Cc2ccc(C3CCCCC3)cc2)S(=O)(=O)c2cccnc2)c1` [Example 1x, (3-(((4-Cyclohexyl-benzyl)-(pyridine-3-sulfonyl)-amino)-methyl)-phenoxy)-acetic acid] yielded an IC50 of 160 nM. `Cn1cnc(S(=O)(=O)N(Cc2ccc(-c3cncnc3)cc2)Cc2cccc(CC(=O)O)c2)c1` [Example 1ai, (3-(((1-Methyl-1H-imidazole-4-sulfonyl)-(4-pyrimidin-5-yl-benzyl)-amino)-methyl)-phenyl)-acetic acid] gave an IC50 of 125 nM. For `O=C(O)COc1cccc(CN(Cc2ccc(-c3nccs3)cc2)S(=O)(=O)c2cccnc2)c1` [Example 3b, (3-(((Pyridine-3-sulfonyl)-(4-thiazol-2-yl-benzyl)-amino)-methyl)-phenoxy)-acetic acid.2TFA], the IC50 was 7.83 nM. With `COc1ccc(OC)c(S(=O)(=O)N(CCCc2cccc(Cl)c2)CCCc2ccc(C(=O)O)s2)c1` [Example 6i, 5-(3-((3-(3-Chloro-phenyl)-propyl)-(2,5-dimethoxy-benzenesulfonyl)-amino)-propyl)-thiophene-2-carboxylic acid] the IC50 was 270 nM. `O=C(O)c1ccc(CCCN(CCCc2cccc(Cl)c2)S(=O)(=O)c2ccc(-n3ncc(=O)[nH]c3=O)cc2)s1` [Example 6d, 5-(3-((3-(3-Chloro-phenyl)-propyl)-(4-(3,5-dioxo-4,5-dihydro-3H-[1,2,4]triazin-2-yl)-benzenesulfonyl)-amino)-propyl)-thiophene-2-carboxylic acid] gave an IC50 of 170 nM. For `O=C(O)Cc1cccc(CN(Cc2ccc3c(c2)OCCO3)S(=O)(=O)c2cccnc2)c1` [Example 1p, (3-(((2,3-Dihydro-benzo[1.4]dioxin-6-ylmethyl)-(pyridine-3-sulfonyl)-amino)-methyl)-phenyl)-acetic acid], the IC50 was 44 nM. Work on `CCCCc1ccc(CN(Cc2cccc(CC(=O)O)c2)S(=O)(=O)c2cccc3nonc23)cc1` [Example 9d, (3-(((Benzo[1,2,5]oxadiazole-4-sulfonyl)-(4-butyl-benzyl)-amino)-methyl)-phenyl)-acetic acid] yielded an IC50 of 203 nM. `O=C(O)Cc1cccc(CN(Cc2ccc(N3CCCC3=O)cc2)S(=O)(=O)c2cccnc2)c1` [Example 1ag, (3-(((4-(2-Oxo-Pyrrolidin-1-yl)-benzyl)-(pyridine-3-sulfonyl)-amino)-methyl)-phenyl)-acetic acid] was tested, and the IC50 was 169 nM. `CCCCc1ccc(CN(Cc2cccc(CC(=O)O)c2)S(=O)(=O)c2ccc(NC(C)=O)cc2)cc1` [Example 9c, (3-(((4-Acetylamino-benzenesulfonyl)-(4-butyl-benzyl)-amino)-methyl)-phenyl)-acetic acid] gave an IC50 of 490 nM. Molecule `CCCCc1ccc(CN(Cc2cccc(CC(=O)O)c2)S(=O)(=O)c2cccs2)cc1` [Example 9b, (3-(((4-Butyl-benzyl)-(thiophene-2-sulfonyl)-amino)-methyl)-phenyl)-acetic acid] has an IC50 of 94.5 nM. Molecule `O=C(O)c1ccc(CCCN(CCCc2cccc(Cl)c2)C(=O)N2CCCC2)s1` [Example 8, 5-(3-((3-(3-Chloro-phenyl)-propyl)-(Pyrrolidine-1-carbonyl)-amino)-propyl)-thiophene-2-carboxylic acid] has an IC50 of 71 nM. For `O=C(O)c1ccc(CCCN(CCCc2cccc(Cl)c2)C(=O)Nc2cccc(Cl)c2Cl)s1` [Example 7f, 5-(3-(1-(3-(3-Chloro-phenyl)-propyl)-3-(2,3-dichloro-phenyl)-ureido)-propyl) thiophene-2-carboxylic acid], the IC50 was 344 nM. `Cn1cc(CN(Cc2cccc(CC(=O)O)c2)S(=O)(=O)c2cccnc2)c2ccccc21` [Example 1b, (3-(((1-Methyl-1H-indol-3-ylmethyl)-(pyridine-3-sulfonyl)-amino)-methyl)-phenyl)-acetic acid] was tested, and the IC50 was 160 nM. In the case of `Cn1cnc(S(=O)(=O)N(Cc2ccc(-c3ncccn3)cc2)Cc2cccc(CC(=O)O)c2)c1` [Example 1al, (3-(((1-Methyl-1H-imidazole-4-sulfonyl)-(4-pyrimidin-2-yl-benzyl)-amino)-methyl)-phenyl)-acetic acid], the IC50 is reported as 17 nM. Work on `CCCCc1ccc(CN(Cc2cccc(CC(=O)O)c2)S(=O)(=O)c2ccc(C#N)cc2)cc1` [Example 1l, (3-(((4-Butyl-benzyl)-(4-cyano-benzenesulfonyl)-amino)-methyl)-phenyl)-acetic acid] yielded an IC50 of 600 nM.
